Test results from patent publication US20150141381A1, “TETRACYCLINE COMPOUNDS HAVING TARGET THERAPEUTIC ACTIVITIES” (Paratek Pharmaceuticals, Inc., priority 2001, published 2015).
Like-named read-outs stand apart in the source and are kept apart here.

Columns and labels:
S. aureus RN450 = assay: In Vitro Anti-Bacterial Activity Assay (MIC), gram positive; format: cell-based; settings: Staphylococcus aureus, RN450, 18 h
E. coli mL308 225 = assay: In Vitro Anti-Bacterial Activity Assay (MIC), gram negative; format: cell-based; settings: Escherichia coli, ML308225, 18 h
[1] = system: cultured murine cortical neurons; assay: Protection of Cultured Cortical Neurons from Excitotoxic Injury Induced by NMDA (NE Assay); format: cell-based, mice; settings: NMDA 62.5 μM, LDH release 24 hours after starting the exposure
Protocol: Primary cortical astrocyte cultures were prepared from one-day old mice, as described in the literature procedure (Tikka, T M et al. J Immunol. 2001 Jun. 15; 166(12):7527-33). After decapitation, the forebrain cortices were collected, cleaned from meninges and, after mincing, dissociated by incubation in papain/Dnase solution followed by trituration. The dissociated cells were suspended in a culture medium consisting of Eagle's minimal essential medium (MEM) with 10% heat-inactivated fetal bovine serum and glutamine (2 mM) and plated in 75 cm^2 cell culture flasks. The medium was replaced with fresh culture medium at day 7. At confluence (day 12-15), the astrocytes were trypsinized and re-plated into 24-well culture vessels. On day 7-8, the neurons were cultured on top of these confluent astrocyte monolayers.
Cortical neuron suspensions were prepared from embryonic day 17 mice. The cortices were collected and meninges removed. The tissue was minced into small pieces and incubated in trypsin solution. The tissue was suspended using a pipette and after centrifugation resuspended and plated on top of astrocyte cultures at a density of 250,000 cells/well to 24-well culture vessel in Eagle's minimal essential medium (MEM, Earle's salts) supplemented with 20 mM glucose, 2 mM glutamine, 10% fetal bovine serum, and 10% heat-inactivated horse serum (HS). Medium was changed after 5 days to MEM containing 20 mM glucose, 2 mM glutamine, and 10% HS, as well as cytosine arabinoside (final concentration 10 μM) to inhibit cell division, and incubated for 2 days. Subsequently, cultures were fed twice weekly with MEM supplemented with 20 mM glucose, 2 mM glutamine and 10% HS, and used at day 12-15.
On the day of experiment, the culture medium was replaced with 1) MEM, 2) MEM containing the test tetracycline compounds. Positive control drug included 10 μM MK-801 (Sigma). […] As a control for total neuronal death, a 24 hour incubation with 500 μM NMDA was used (100% cell death control).
The cell viability was assessed by measuring lactate dehydrogenase (LDH) release 24 hours after starting the exposure. The LDH release to the culture medium was measured from cell-free medium using Sigma LDH reagent employing kinetic measurement of conversion of lactate to pyruvate using NADH as a cofactor. The rate of increase in absorbance at 340 nm was directly proportional to the activity of LDH in the sample, and was measured with a Labsystems Multiskan ELISA reader.

[2] = MIC class, Table 3, read-out: Antibiotic Activity Gram +
[3] = MIC class, Table 3, read-out: Antibiotic Activity Gram −
[4] = gram positive bacteria, read-out: Antibiotic Activity Gram + (MIC)
[5] = gram negative bacteria, read-out: Antibiotic Activity Gram − (MIC)
[6] = MIC class, Table 3 (Continued), read-out: Gram+ activity
[7] = MIC class, Table 3 (Continued), read-out: Gram− activity

| Structure (SMILES) | MIC (S. aureus RN450; [2]) [µg/mL] | MIC (E. coli mL308 225; [3]) [µg/mL] | neuroprotection (cell viability by LDH release) [1] | MIC (S. aureus RN450; [4]) [µg/mL] | MIC (E. coli mL308 225; [5]) [µg/mL] | other results |
| --- | --- | --- | --- | --- | --- | --- |
| CN(C)CCCOC(=O)/C=C/c1ccc(O)c2c1C[C@H]1C[C@H]3[C@H](N(C)C)C(O)=C(C(N)=O)C(=O)[C@@]3(O)C(O)=C1C2=O [BP] | < 4 | < 4 | good neuroprotection | – | – | – |
| C=C1c2cccc(O)c2C(=O)C2=C(O)[C@]3(O)C(=O)C(C(N)=O)=C(O)[C@@H](N(C)C)[C@@H]3[C@@H](O)[C@H]12 [C] | > 4 | > 4 | good neuroprotection | – | – | – |
| CN(C)Cc1ccc(O)c2c1C[C@H]1C[C@H]3[C@@H](N(C)C)C(O)=C(C(N)=O)C(=O)[C@@]3(O)C(O)=C1C2=O [KF] | < 4 | < 4 | good neuroprotection | – | – | – |
| CN(C)c1cc(NCc2ccc3c(c2)OCO3)c(O)c2c1C[C@H]1C[C@H]3[C@H](N(C)C)C(O)=C(C(N)=O)C(=O)[C@@]3(O)C(O)=C1C2=O [EV] | > 4 | > 4 | good neuroprotection | – | – | – |
| CN(C)c1cc(NC(=O)Nc2ccc([N+](=O)[O-])cc2)c(O)c2c1C[C@H]1C[C@H]3[C@@H](N(C)C)C(O)=C(C(N)=O)C(=O)[C@@]3(O)C(O)=C1C2=O [CD] | < 4 | > 4 | good neuroprotection | – | – | – |
| CN(C)[C@@H]1C(O)=C(C(N)=O)C(=O)[C@@]2(O)C(O)=C3C(=O)c4c(O)ccc(/C=C/C(=O)NC(C)(C)C)c4C[C@H]3C[C@@H]12 [CW] | < 4 | > 4 | good neuroprotection | – | – | – |
| CN(C)[C@@H]1C(O)=C(C(N)=O)C(=O)[C@@]2(O)C(O)=C3C(=O)c4c(O)c(C(C)(C)C)cc(CN)c4C[C@H]3C[C@@H]12 [IE] | > 4 | > 4 | good neuroprotection | – | – | – |
| CN(C)C1C(O)=C(C(N)=O)C(=O)[C@@]2(O)C(O)=C3C(=O)c4c(O)ccc(CNCC(C)(C)C)c4C[C@H]3C[C@@H]12 (stereo partly drawn) [JD] | < 4 | < 4 | good neuroprotection | – | – | – |
| CCC(=O)O[C@H]1[C@H]2C(=C(O)[C@]3(O)C(=O)C(C(N)=O)=C(O)[C@@H](N(C)C)[C@H]13)C(=O)c1c(O)cccc1[C@@H]2C [M] | < 4 | > 4 | good neuroprotection | – | – | – |
| CN(C)c1cc(NC(=O)Nc2cccc(F)c2)c(O)c2c1C[C@H]1C[C@H]3[C@@H](N(C)C)C(O)=C(C(N)=O)C(=O)[C@@]3(O)C(O)=C1C2=O [H] | < 4 | > 4 | good neuroprotection | – | – | – |
| CN(C)[C@H]1C(O)=C(C(N)=O)C(=O)[C@@]2(O)C(O)=C3C(=O)c4c(O)c(CN)cc(-c5ccccc5)c4C[C@H]3C[C@@H]12 [JC] | > 4 | > 4 | good neuroprotection | – | – | – |
| CCc1cc(CNCCC(F)(F)F)c(O)c2c1C[C@H]1C[C@H]3[C@H](N(C)C)C(O)=C(C(N)=O)C(=O)[C@@]3(O)C(O)=C1C2=O | – | – | – | < 4 | < 4 | – |
| C#Cc1cc(N(C)C)c2c(c1O)C(=O)C1=C(O)[C@]3(O)C(=O)C(C(N)=O)=C(O)C(N(C)C)[C@@H]3C[C@@H]1C2 (stereo partly drawn) | – | – | – | – | – | MIC (S. aureus RN450; [6]): < 4 µg/mL; MIC (E. coli mL308 225; [7]): > 4 µg/mL |
| CC(O)CCc1ccc(O)c2c1C[C@H]1C[C@H]3[C@H](N(C)C)C(O)=C(C(N)=O)C(=O)[C@@]3(O)C(O)=C1C2=O (stereo partly drawn) [CR] | < 4 | > 4 | – | – | – | – |
| CN(C)c1cc(CCCNS(C)(=O)=O)c(O)c2c1C[C@H]1C[C@H]3[C@H](N(C)C)C(O)=C(C(N)=O)C(=O)[C@@]3(O)C(O)=C1C2=O | – | – | – | > 4 | > 4 | – |
| CCCCOC(=O)C#Cc1cc(N(C)C)c2c(c1O)C(=O)C1=C(O)[C@]3(O)C(=O)C(C(N)=O)=C(O)[C@@H](N(C)C)[C@@H]3C[C@@H]1C2 [DL] | > 4 | > 4 | – | – | – | – |
| CN(C)[C@@H]1C(O)=C(C(N)=O)C(=O)[C@@]2(O)C(O)=C3C(=O)c4c(O)ccc(C#Cc5ccccc5)c4C[C@H]3C[C@@H]12 | – | – | – | – | – | MIC (S. aureus RN450; [6]): < 4 µg/mL; MIC (E. coli mL308 225; [7]): < 4 µg/mL |
| CCCCCCc1ccc(O)c2c1C[C@H]1C[C@H]3[C@H](N(C)C)C(O)=C(C(N)=O)C(=O)[C@@]3(O)C(O)=C1C2=O | – | – | – | < 4 | < 4 | – |
| CN(C)Cc1ccc(-c2ccc(O)c3c2C[C@H]2C[C@H]4C(N(C)C)C(O)=C(C(N)=O)C(=O)[C@@]4(O)C(O)=C2C3=O)cc1 (stereo partly drawn) | – | – | – | – | – | MIC (S. aureus RN450; [6]): < 4 µg/mL; MIC (E. coli mL308 225; [7]): < 4 µg/mL |
| CC1c2cccc(O)c2C(=O)C2=C(O)[C@]3(O)C(=O)C(C(N)=O)=C(O)[C@@H](N(C)C)[C@@H]3[C@@H](OC(=O)C3CCC3)[C@@H]21 (stereo partly drawn) | – | – | – | – | – | MIC (S. aureus RN450; [6]): < 4 µg/mL; MIC (E. coli mL308 225; [7]): < 4 µg/mL |
| COC(=O)/C=C/c1ccc(O)c2c1C[C@H]1C[C@H]3[C@H](N(C)C)C(O)=C(C(N)=O)C(=O)[C@@]3(O)C(O)=C1C2=O [NJ] | < 4 | > 4 | – | – | – | – |
| COc1ccc(-c2ccc3c(c2O)C(=O)C2=C(O)[C@]4(O)C(=O)C(C(N)=O)=C(O)[C@@H](N(C)C)[C@@H]4[C@@H](O)[C@@H]2[C@H]3C)cc1CC1CCCC1 | – | – | – | > 4 | > 4 | – |
| CN(C)[C@@H]1C(O)=C(C(N)=O)C(=O)[C@@]2(O)C(O)=C3C(=O)c4c(O)c(C(C)(C)C)cc(-c5ccc6c(c5)OCO6)c4C[C@H]3C[C@@H]12 | – | – | – | > 4 | > 4 | – |
| CCCCOc1ccc(-c2ccc(N(C)C)cc2)c2c1C(=O)C1=C(O)[C@]3(O)C(=O)C(C(N)=O)=C(O)[C@@H](N(C)C)[C@@H]3C[C@@H]1C2 | – | – | – | < 4 | > 4 | – |
| CN(C)C(=O)c1ccc(O)c2c1C[C@H]1C[C@H]3[C@H](N(C)C)C(O)=C(C(N)=O)C(=O)[C@@]3(O)C(O)=C1C2=O | – | – | – | < 4 | > 4 | – |
| CN(C)c1cc(N2CCOCC2)c(O)c2c1C[C@H]1C[C@H]3[C@H](N(C)C)C(O)=C(C(N)=O)C(=O)[C@@]3(O)C(O)=C1C2=O | – | – | – | > 4 | > 4 | – |
| CCC(=O)O[C@@H]1[C@H]2[C@H](N(C)C)C(O)=C(C(N)=O)C(=O)[C@@]2(O)C(O)=C2C(=O)c3c(O)cccc3C(C)[C@H]21 (stereo partly drawn) | – | – | – | – | – | MIC (S. aureus RN450; [6]): > 4 µg/mL; MIC (E. coli mL308 225; [7]): > 4 µg/mL |
| CN(C)[C@@H]1C(O)=C(C(N)=O)C(=O)[C@@]2(O)C(O)=C3C(=O)c4c(O)c(CNC(=O)c5cccnc5)cc(CCC5CCCCC5)c4C[C@H]3C[C@@H]12 [CV] | < 4 | > 4 | – | – | – | – |
| C[C@H]1c2ccc(CN3CCC4(CC3)OCCO4)c(O)c2C(=O)C2=C(O)[C@]3(O)C(=O)C(C(N)=O)=C(O)[C@@H](N(C)C)[C@@H]3[C@@H](O)[C@@H]21 | – | – | – | < 4 | < 4 | – |
